From patent US20260193180A1, “AUTOPHAGY INDUCING COMPOUNDS AND USES THEREOF” (SAMSARA THERAPEUTICS INC., priority 2022, published 2026)

Key:
[1] = system: Human osteosarcoma U2OS cells; assay: Acidic vesicle formation (lysosome/autolysosome staining, LysoView 633 / LysoTracker Deep Red), stimulation of autophagy; format: cell-based; settings: 24 hours; for activation at 0.8 µM: read-out: Activity (percentage increase in acidic vesicle formation over the DMSO-treated control); for activation at 10 µM: read-out: increase in acidic vesicle formation over the DMSO-treated control
In short: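 U2OS cells treated with compound for 24 h, then stained 45 min at 37° C with 1× LysoView 633 or 50 nM LysoTracker Deep Red plus Hoechst nuclei. Live-cell fluorescence images (Cy5/DAPI) scored for acidic vesicle formation relative to DMSO control.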

[2] = system: C57BL/6JRj mice injured by intra-nigral injections of alpha-synuclein and CBE; assay: Mouse model of Parkinson's disease (intra-nigral alpha-synuclein protofibrils plus CBE); format: in vivo; settings: 30 mg/kg per os on the first day, then 10 mg/kg per os once a day
Source text: This model (run by Neuro-Sys SAS, France) uses C57BL/6JRj mice injured by intra-nigral injections of a solution containing protofibrils of alpha-synuclein (α-syn, precisely quantified by automatic Western Blot) and combined with pharmacological inhibition of GBA by conduritol B epoxide (CBE), in aged mice. The model mimics the main pathologies of PD: loss of dopaminergic neurons in the substantia nigra, neuroinflammation, deficits in motor coordination and synucleinopathy (α-syn aggregation). Any substance with positive effects in this model may be useful as a new therapeutic agent for the treatment or prevention of PD.
• Type of animal: C57BL/6JRj (Male) • Age: 18 months old • Supplier: Janvier Labs • Animal number: 10 mice per group • Acclimation and clinical signs: Animals arrived on site 7 days (one week) before the experiment to allow optimal acclimation.
Overview: CBE was administered along with the test compounds, starting on the day of the stereotaxic injections of the α-syn oligomer preparation.
Test compounds at specific concentrations (see below) were administered per os (gavage or drinking water). • Test compound treatment: The test compounds were solubilized (vehicle=water), aliquoted and stored at −20° C. Aliquots were thawed overnight at 4° C. and given once a day. Treatment started on the day of the stereotaxic injections of α-syn preparation (Day 0). Treatment was administrated until the last day of the experiment (Day 28; =day of dissection). • CBE dose and administration: 50 mg/kg, Intraperitoneal (i.p.), twice a day. • CBE treatment: Administration of CBE (vehicle=saline [NaCl 0.9%] started on the day of the stereotaxic injections of α-syn preparation (Day 0). Treatment was administrated until the last day of the experiment (Day 28; =day of dissection), • Untreated control: vehicle (saline; i.p.) administered twice a day, • Stereotaxic injections of α-syn oligomers: Human α-syn peptide (stock at 69 μM in water at −20° C.) was reconstituted at 50 μM in NaCl, 0.9% (final concentration). All mice in compound treated groups were subjected to surgery and received 2.5 μL of α-syn solution. Mice were anesthetized by isoflurane (4%, for induction), in an induction chamber coupled with a vaporizer and to an oxygen concentrator. Mice were placed on the stereotaxic frame. Anesthesia was maintained by isoflurane (2%) with a face mask coupled to the isoflurane vaporizer and oxygen concentrator machine. The skull was exposed and holes were drilled. The α-syn preparation was bilaterally injected into the SNpc, at the following coordinates: A-P, −0.3 mm; M-L, +0.12 mm; D-V, −0.45 mm. Depth of anesthesia and rectal temperature were verified every 5 minutes. After surgery, mice were allowed to recover before being placed back in the cage.
• i) Body mass • ii) Assessment of motor coordination: bar test and grid walking test • iii) Dopaminergic Tyrosine hydroxylase (TH)-positive neuron survival in the substantia nigra pars compacta (SNpc), i.e. a measure of the number of TH neurons in the SNpc • iv) α-syn area in TH positive neurons (a measure of the degree of aggregation of α-syn in TH positive neurons, in the SNpc)
• Overall: For overall evaluation and body mass, mice were observed daily, and body mass was monitored prior to drug administration. • Assessment of motor coordination: bar test.
In the third week (Week 3) post-surgery, motor coordination of the mice was assessed with the bar test. The principle of the test is based on the capacity of the mice to cross a horizontal bar connected to a platform (18 mm of diameter, 60 cm long). The test requires good coordination between front and hindlimbs, and good balance. Mice are placed at one extremity of the bar and need to reach a platform located at the other side of the bar. Motor coordination was studied after two training sessions, one and two days before the test. Three sessions were recorded by a video camera system. […]

[3] = Bioavailability / brain exposure in CD1 mice; format: in vivo; settings: dose of 30 mg/kg
Procedure: The compounds have good properties for oral dosing and readily cross the blood brain barrier. For example, in CD1 mice, Compound 9 has a maximum concentration in brain plasma of 5067 ng/ml after 30 minutes at a dose of 30 mg/kg. Compound 12 has a maximum concentration in brain plasma of 5853 ng/ml after 8 hours at a dose of 30 mg/kg.

| Compound | activation at 0.8 µM [1] [%] | activation at 10 µM [1] [%] | bar test: decrease in the mean time required to cross the bar compared to the α-syn/CBE injured group ([2]; week 3) [%] | bar test: reduction in the mean number of steps required to cross the bar compared to the α-syn/CBE injured group ([2]; week 3) [%] | bar test: reduction in the number of misplaced steps (failed strides) compared to the α-syn/CBE injured group ([2]; week 3) [%] | decrease in the aggregation of α-syn in TH neurons (α-syn area) compared to the α-syn/CBE injured group ([2]; week 4) [%] | grid walking test: increase in the total distance travelled during the test ([2]; week 4) [%] | grid walking test: reduction in the mean number of failures per meter (number of missed steps) ([2]; week 4) [%] | increase in the number of dopaminergic TH positive neurons in the SNpc compared to the α-syn/CBE injured group ([2]; week 4) [%] | maximum concentration in brain plasma [3] [ng/mL] | time of maximum concentration in brain plasma [3] [min] |
| --- | --- | --- | --- | --- | --- | --- | --- | --- | --- | --- | --- |
| CCOc1ccc(CN2CC[C@@H](CN)C2)cc1Cl.Cl [Compound 30, (S)-(1-(3-chloro-4-ethoxybenzyl)pyrrolidin-3-yl)methanamine hydrochloride] | > 100 | ≥ 25 | 25 | 7 | 19 | 30 | 36 | 28 | 57 | – | – |
| CCOc1ccc(Cl)cc1CN1CCN[C@@H](C)C1.Cl [Compound 9, (S)-1-(5-chloro-2-ethoxybenzyl)-3-methylpiperazine hydrochloride] | 10 to 30 | ≥ 25 | – | – | – | – | – | – | – | 5067 | 30 |
